The supplement of paper PMC11208160

Experiment: recombinant UMI read abundance after kanamycin selection (control-corrected) (log10(CPM+1)); higher = more efficient recombination; extreme values may be limits of the assay; sequences stand for … in AGTGCAGAGAAAATCGGCCAGTTTTCTCTGCCTGCAGTCCGCATGCCGTGGGACCCCTTGGGTTCTAACCTGTTGCCTAGATTTATGCAGCGGACTGCCTTTCTCCCAAAGTGATAAACCGG…AGGTTGGTTTCACT; site = the 11-nt donor
Method in brief: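 Values are reported as log10(CPM+1), obtained by converting sequencing counts to CPM, averaging replicates and scaling by control-derived factors. The counts came from recombinant UMIs amplified by PCR across the donor–target junction. These UMIs came from a pooled Escherichia coli screen of donor and donor-binding-loop pairs for the IS621 bridge recombinase, plated with IPTG (0.07 mM) plus kanamycin or left unselected, in two replicates each.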
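Also: IS621 bridge recombinase in Escherichia coli cells against a fixed T5 target plasmid.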

Row | Sequence | recombinant UMI read abundance (log10)
1 | AGGAAGACATGGACCGGTTTTCCCGGTAATCCGTATTTGCA (site AGAAAGACTTG) | 2.32
2 | CAATTCCCATGGACCGGTTTTCCCGGTAATCCGTATTTGTT (site CAATTCCCTAG) | 1.41
3 | CGAGGTCCATGGACCGGTTTTCCCGGTAATCCGTATTTGGG (site CGAGGGCCTCC) | 0.0131
4 | CCTAATGCATGGACCGGTTTTCCCGGTAATCCGTATTTGAT (site CCTAATGCTAT) | 0
5 | CAGTCGACATGGACCGGTTTTCCCGGTAATCCGTATTTGGG (site CAGTCAACTCC) | 0.0265
6 | ACAAAGCCATGGACCGGTTTTCCCGGTAATCCGTATTTGGC (site ACAAAGCCTGC) | 0
7 | TATTGTGCATGGACCGGTTTTCCCGGTAATCCGTATTTGGT (site TATTGTGCTAC) | 0.401
8 | GGAACGTCATGGACCGGTTTTCCCGGTAATCCGTATTTGTT (site GGGACGTCTAA) | 0.28
9 | TAGCTAGCATGGACCGGTTTTCCCGGTAATCCGTATTTGAA (site TAGCCAGCTTT) | 0.0109
10 | TTCAACTCATGGACCGGTTTTCCCGGTAATCCGTATTTGAC (site TTCAACTCTGT) | 0
11 | CTCCCTACATGGACCGGTTTTCCCGGTAATCCGTATTTGAG (site CTCCCTACTCT) | 0.248
12 | GCGAAAACATGGACCGGTTTTCCCGGTAATCCGTATTTGCT (site GCGGAAACTAG) | 1.21
13 | CACTTGTCATGGACCGGTTTTCCCGGTAATCCGTATTTGGA (site CACTTGGCTTC) | 0.00318
14 | GAGGTATCATGGACCGGTTTTCCCGGTAATCCGTATTTGCT (site GAGGTATCTAG) | 2.57
15 | ACCGAGCCATGGACCGGTTTTCCCGGTAATCCGTATTTGAT (site ACCGAGCCTAT) | 1.13
16 | CAATGGCCATGGACCGGTTTTCCCGGTAATCCGTATTTGCA (site AAATGGCCTTG) | 0
17 | AATTAGGCATGGACCGGTTTTCCCGGTAATCCGTATTTGGA (site AATTATGCTTC) | 0.317
18 | CGGAGTACATGGACCGGTTTTCCCGGTAATCCGTATTTGTT (site CGGAATCCTAA) | 0
19 | GAGACTCCATGGACCGGTTTTCCCGGTAATCCGTATTTGTA (site GAGACTCCTTA) | 0.807

Row | Sequence | recombinant UMI read abundance (log10)
20 | ATTCAAGCATGGACCGGTTTTCCCGGTAATCCGTATTTGAG (site ATTCAAGCTCT) | 1.16
21 | GGTACGTCATGGACCGGTTTTCCCGGTAATCCGTATTTGTG (site GGTACGTCTAA) | 0.0133
22 | AGCCTTTCATGGACCGGTTTTCCCGGTAATCCGTATTTGGC (site AGCCTTTCTGC) | 0
23 | AAAGCAGCATGGACCGGTTTTCCCGGTAATCCGTATTTGCT (site TAAGCAGCTAG) | 1.67
24 | GACGGCCCATGGACCGGTTTTCCCGGTAATCCGTATTTGTT (site TACGGCCCTAA) | 0.00762
25 | CTGGGATCATGGACCGGTTTTCCCGGTAATCCGTATTTGCT (site CTGGGATCTAG) | 1.9
26 | TGTCCTACATGGACCGGTTTTCCCGGTAATCCGTATTTGTG (site TGTCCTACTCA) | 0.266
27 | CACGCCCCATGGACCGGTTTTCCCGGTAATCCGTATTTGTT (site CACGTCCCTAA) | 0.0223
28 | GATTGTACATGGACCGGTTTTCCCGGTAATCCGTATTTGAC (site GATTGGACTGT) | 0
29 | GTAGGTACATGGACCGGTTTTCCCGGTAATCCGTATTTGAC (site GTATGTACTGT) | 0.986
30 | ATAAGGCCATGGACCGGTTTTCCCGGTAATCCGTATTTGAC (site ATAAGGCCTGC) | 0.147
31 | TAATGAGCATGGACCGGTTTTCCCGGTAATCCGTATTTGTG (site TAATGAGCTCG) | 1.54
32 | GGTACGTCATGGACCGGTTTTCCCGGTAATCCGTATTTGTT (site GGTAAGTCTAA) | 0
33 | CAAGTCACATGGACCGGTTTTCCCGGTAATCCGTATTTGGC (site CAAGTCACTAC) | 0.739
34 | GGAGTTGCATGGACCGGTTTTCCCGGTAATCCGTATTTGGT (site GGAGTTGCTAC) | 0.861
35 | TGCAATCCATGGACCGGTTTTCCCGGTAATCCGTATTTGAA (site GGCAATCCTTT) | 0.0354
36 | CAATTACCATGGACCGGTTTTCCCGGTAATCCGTATTTGCT (site CAATTTCCTAG) | 0
37 | CCTTTGGCATGGACCGGTTTTCCCGGTAATCCGTATTTGCT (site CCTTTGGCTAG) | 0.00901
38 | AATCGTCCATGGACCGGTTTTCCCGGTAATCCGTATTTGAT (site AAACGTCCTAT) | 0.00356

Row | Sequence | recombinant UMI read abundance (log10)
39 | ACAGTTTCATGGACCGGTTTTCCCGGTAATCCGTATTTGCA (site ACAGTCTCTTG) | 2.43
40 | ATAGTAACATGGACCGGTTTTCCCGGTAATCCGTATTTGAG (site ATAGTAACTCT) | 2.18
41 | AAGTAGGCATGGACCGGTTTTCCCGGTAATCCGTATTTGCA (site AAGTAGGCTTG) | 2.63
42 | CTGGAAGCATGGACCGGTTTTCCCGGTAATCCGTATTTGCA (site CTGGAACCTTG) | 0
43 | GGTCCAACATGGACCGGTTTTCCCGGTAATCCGTATTTGGA (site GGTCCAACTTC) | 0.0919
44 | TGATCAACATGGACCGGTTTTCCCGGTAATCCGTATTTGCT (site TGATCAACTAG) | 0.879
45 | CGATCGACATGGACCGGTTTTCCCGGTAATCCGTATTTGTT (site CGATCGACTGA) | 0.668
46 | CTCTCATCATGGACCGGTTTTCCCGGTAATCCGTATTTGCT (site CGATCATCTAG) | 0
47 | GCCTACTCATGGACCGGTTTTCCCGGTAATCCGTATTTGGA (site GCCTACTCTTC) | 1.91
48 | GCTTATCCATGGACCGGTTTTCCCGGTAATCCGTATTTGCT (site GCTTATCCTAG) | 1.03
49 | CGCCTAGCATGGACCGGTTTTCCCGGTAATCCGTATTTGTT (site AGCCTAGCTAA) | 0.00606
50 | TCCACCGCATGGACCGGTTTTCCCGGTAATCCGTATTTGCT (site TCCACCGCTGG) | 0
51 | ATCGATACATGGACCGGTTTTCCCGGTAATCCGTATTTGAC (site ATCGATACTGT) | 2.32
52 | AGAAGTCCATGGACCGGTTTTCCCGGTAATCCGTATTTGAA (site AGAAGTCCTTT) | 1.33
53 | CGATCGACATGGACCGGTTTTCCCGGTAATCCGTATTTGTT (site CGATCGACTAT) | 0.188
54 | ATATATCCATGGACCGGTTTTCCCGGTAATCCGTATTTGGT (site ATATATCCTAC) | 0.648
55 | GCGAAAACATGGACCGGTTTTCCCGGTAATCCGTATTTGCC (site GCGAAAACTGG) | 0
56 | ATAAGGCCATGGACCGGTTTTCCCGGTAATCCGTATTTGAC (site CTAAGGCCTGT) | 0
57 | AGGAAGACATGGACCGGTTTTCCCGGTAATCCGTATTTGCA (site ACGAAGACTTG) | 0.832
